Measured values as given in PubChem BioAssay AID1845201 (Molecular Pharmacology Branch, DTP, NCI, 2023).
Where “and” joins values, the source holds several entries; their conditions need not be identical. Equal entries are not always repeated.

Tested on: COR L88 complex tumor spheroid viability
Assay: Anticancer human tumor COR L88 cell line growth inhibition;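 note: compound exposure lasted 7 days before viability readout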;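 for viability, T/C: percent of DMSO vehicle-treated spheroids = 100%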
Details: for viability, T/C: stronger effect = lower value
How it was run: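 Single agents and combinations were tested on spheroids built from tumor cells plus HUVEC and hMSC, at half-log dilutions starting at or near clinical Cmax, else 10 microM; final DMSO 0.25% (v/v).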

[1] = curve of first compound, second compound 0.003 µM
[2] = curve of first compound, second compound 0.00949 µM
[3] = curve of first compound, second compound 0.03 µM
[4] = curve of first compound, second compound 0.0949 µM
[5] = curve of first compound, second compound 0.3 µM
[6] = second compound 0.003 µM, first compound 0.0316 µM
[7] = second compound 0.003 µM, first compound 0.1 µM
[8] = second compound 0.003 µM, first compound 0.316 µM
[9] = second compound 0.003 µM, first compound 1 µM
[10] = second compound 0.003 µM, first compound 3.16 µM
[11] = second compound 0.003 µM, first compound 10 µM
[12] = second compound 0.00949 µM, first compound 0.0316 µM
[13] = second compound 0.00949 µM, first compound 0.1 µM
[14] = second compound 0.00949 µM, first compound 0.316 µM
[15] = second compound 0.00949 µM, first compound 1 µM
[16] = second compound 0.00949 µM, first compound 3.16 µM
[17] = second compound 0.00949 µM, first compound 10 µM
[18] = second compound 0.03 µM, first compound 0.0316 µM
[19] = second compound 0.03 µM, first compound 0.1 µM
[20] = second compound 0.03 µM, first compound 0.316 µM
[21] = second compound 0.03 µM, first compound 1 µM
[22] = second compound 0.03 µM, first compound 3.16 µM
[23] = second compound 0.03 µM, first compound 10 µM
[24] = second compound 0.0949 µM, first compound 0.0316 µM
[25] = second compound 0.0949 µM, first compound 0.1 µM
[26] = second compound 0.0949 µM, first compound 0.316 µM
[27] = second compound 0.0949 µM, first compound 1 µM
[28] = second compound 0.0949 µM, first compound 3.16 µM
[29] = second compound 0.0949 µM, first compound 10 µM
[30] = second compound 0.3 µM, first compound 0.0316 µM
[31] = second compound 0.3 µM, first compound 0.1 µM
[32] = second compound 0.3 µM, first compound 0.316 µM
[33] = second compound 0.3 µM, first compound 1 µM
[34] = second compound 0.3 µM, first compound 3.16 µM
[35] = second compound 0.3 µM, first compound 10 µM

Compound `[2H]c1nc(C)nc([2H])c1-c1cc(NC[C@@H](C)c2cccc3c(C(=O)NC)ccnc23)ncn1` + CC[C@@]1(O)C(=O)OCc2c1cc1n(c2=O)Cc2cc3c(CN(C)C)c(O)ccc3nc2-1 has an IC50 [1] greater than 10 µM, an IC50 [2] greater than 10 µM and an IC50 [3] of 2 µM. For the same compound, the IC50 [4] was 1.55 µM, the IC50 [5] was 8.58 µM and the viability, T/C [6] was 99.2%. It also gave a viability, T/C [7] of 98.1%, a viability, T/C [8] of 103% and a viability, T/C [9] of 99%. The viability, T/C [10] was 101%, the viability, T/C [11] was 100% and the viability, T/C [12] was 68.6%. For the same compound, the viability, T/C [13] was 72.5%, the viability, T/C [14] was 83.1% and the viability, T/C [15] was 87.7%. The viability, T/C [16] was 85%, the viability, T/C [17] was 85.1% and the viability, T/C [18] was 56.6%. The viability, T/C [19] was 58.3%, the viability, T/C [20] was 52.1% and the viability, T/C [21] was 55.2%. It also gave a viability, T/C [22] of 47.3%, a viability, T/C [23] of 38.9% and a viability, T/C [24] of 58.3%. It also gave a viability, T/C [25] of 59.8%, a viability, T/C [26] of 54.7% and a viability, T/C [27] of 62.5%. It also gave a viability, T/C [28] of 34.4%, a viability, T/C [29] of 37% and a viability, T/C [30] of 55.9%. For the same compound, the viability, T/C [31] was 55.4%, the viability, T/C [32] was 57.1% and the viability, T/C [33] was 57.3%. The viability, T/C [34] was 57.1% and the viability, T/C [35] was 42.4%.

`Cn1ncnc1[C@H]1c2n[nH]c(=O)c3cc(F)cc(c23)N[C@@H]1c1ccc(F)cc1` was tested, and the viability, T/C (compound 0.00949 µM) was 88.5% and 92.9% and 87.1%, the viability, T/C (compound 0.03 µM) was 79.6% and 66.2% and 79.5% and the viability, T/C (compound 0.0949 µM) was 66.9% and 62.7% and 56%. The viability, T/C (compound 0.3 µM) was 59.6% and 54.9% and 49.2%, the viability, T/C (compound 0.949 µM) was 43.3% and 45% and 39.5% and the viability, T/C (compound 3 µM) was 43.6% and 37.6% and 40.6%. The IC50 (curve of compound) was 0.665 µM and 0.353 µM and 0.293 µM.

Compound `COc1cc(C)[nH]c(=O)c1CN1CCc2c(Cl)cc(C(OC)C3COC3)c(Cl)c2C1=O` (configuration not stated) + CC[C@@]1(O)C(=O)OCc2c1cc1n(c2=O)Cc2cc3c(CN(C)C)c(O)ccc3nc2-1 has an IC50 [1] greater than 10 µM, an IC50 [2] greater than 10 µM and an IC50 [3] of less than 0.0316 µM. It also gave an IC50 [4] of less than 0.0316 µM, an IC50 [5] of less than 0.0316 µM and a viability, T/C [6] of 87%. For the same compound, the viability, T/C [7] was 90.9%, the viability, T/C [8] was 83.5% and the viability, T/C [9] was 85.4%. The viability, T/C [10] was 86.5%, the viability, T/C [11] was 75% and the viability, T/C [12] was 65.7%. The viability, T/C [13] was 53.2%, the viability, T/C [14] was 53.3% and the viability, T/C [15] was 50.9%. It also gave a viability, T/C [16] of 49%, a viability, T/C [17] of 52.7% and a viability, T/C [18] of 43.3%. It also gave a viability, T/C [19] of 44.3%, a viability, T/C [20] of 38.7% and a viability, T/C [21] of 39.2%. For the same compound, the viability, T/C [22] was 35.5%, the viability, T/C [23] was 17.1% and the viability, T/C [24] was 46.2%. For the same compound, the viability, T/C [25] was 43.8%, the viability, T/C [26] was 41.2% and the viability, T/C [27] was 45.5%. For the same compound, the viability, T/C [28] was 38.2%, the viability, T/C [29] was 19.1% and the viability, T/C [30] was 47.6%. For the same compound, the viability, T/C [31] was 46.1%, the viability, T/C [32] was 41.2% and the viability, T/C [33] was 42.8%. For the same compound, the viability, T/C [34] was 41.2% and the viability, T/C [35] was 37.5%.
